Experimental data: US20260217672A1, “BENZAMIDE COMPOUNDS FOR TREATMENT OF BACTERIAL INFECTIONS” (Hoffmann-La Roche Inc., priority 2022, published 2026)
Converted amounts (≈) assume the structure as drawn.

Assays:
[1] = tested on: Escherichia coli ATCC 25922; test: Minimal Inhibitory Concentration (MIC) broth dilution assay; format: cell-based; settings: ATCC25922, 20 h, read-out: MIC Escherichia coli ATCC 25922
Experimental: (§1) The antibacterial activity of the compounds of the present invention was evaluated against the commonly used quality control strain Escherichia coli ATCC 25922 and the rifampin-resistant mutant strain Klebsiella pneumonia ATCC 43816. Both were originally derived from human clinical samples and are available from ATCC (American Type Culture Collection). The in vitro potency of compounds to inhibit Escherichia coli (ATCC 25922) and Klebsiella pneumonia (ATCC 43816) growth was assessed by the MIC (Minimal Inhibitory Concentration) broth dilution method. Specifically compound dilutions were prepared from 10 mM DMSO stock solutions as follows: i) serial 2-fold dilution in 20 μL DMSO were prepared in a master plate (Greiner, Cat No: 651201), ii) 180 μL sterile distilled water was added to each aliquot and iii) 10 μL diluted compounds were transferred into a new assay plate (Costar, 3599).
(§2) Vials of each test microorganisms were maintained frozen in the vapor phase of a liquid nitrogen freezer. Single-use frozen vials of the two strains Escherichia coli ATCC 25922 (KWIKSTIK, 0335K) and Klebsiella pneumonia ATCC 43816, with predetermined CFU/mL, were taken out from the freezer, thawed at room temperature, and diluted in Cation-Adjusted Mueller Hinton Broth (CAMHB) to achieve a final inoculum of 5×10^5 CFU/mL. 90 μL bacteria containing broth was dispensed to the assay plate containing the pre-dispensed compound dilutions and mixed by pipetting 5 times.
(§3) Then the assay plates were incubated for 20 hours at 35° C. in ambient air. Following incubation, the MIC ([…]), the lowest concentration of drug that inhibits visible growth of the microorganism was read with the help of a magnification mirror and recorded.

[2] = tested on: Klebsiella pneumonia ATCC 43816; test: as above; format: cell-based; settings: Klebsiella pneumoniae, ATCC43816, 20 h, read-out: MIC Klebsiella pneumoniae ATCC43816
Experimental: as §1, §2, §3

| SMILES | MIC [1] [µg/mL] | MIC [2] [µg/mL] |
| --- | --- | --- |
| O=C(c1cnn(C2CNC2)c1)N1CCc2cc(S(=O)(=O)N3CCN(c4cc(C(F)(F)F)cc(Cl)n4)CC3)ccc21 [Example 036, [1-(Azetidin-3-yl)pyrazol-4-yl]-[5-[4-[6-chloro-4-(trifluoromethyl)-2-pyridyl]piperazin-1-yl]sulfonylindolin-1-yl]methanone] | 3.7 (≈ 6.21 µM) | 7.4 (≈ 12.4 µM) |
| NCCCn1cc(C(=O)N2CCc3cc(S(=O)(=O)N4CCN(c5cc(C(F)(F)F)cc(Cl)n5)CC4)ccc32)cn1 [Example 037, [1-(3-Aminopropyl)pyrazol-4-yl]-[5-[4-[6-chloro-4-(trifluoromethyl)-2-pyridyl]piperazin-1-yl]sulfonylindolin-1-yl]methanone] | 3.7 (≈ 6.19 µM) | 7.5 (≈ 12.5 µM) |
| O=C(c1cnn2c1CNCC2)N1CCc2cc(S(=O)(=O)N3CCN(c4cc(C(F)(F)F)cc(Cl)n4)CC3)ccc21 [Example 038, [5-[4-[6-Chloro-4-(trifluoromethyl)-2-pyridyl]piperazin-1-yl]sulfonylindolin-1-yl]-(4,5,6,7-tetrahydropyrazolo[1,5-a]pyrazin-3-yl)methanone] | 3.7 (≈ 6.21 µM) | 7.4 (≈ 12.4 µM) |
| O=C(CN1CCNCC1)Nc1ccc(S(=O)(=O)N2CCN(c3cc(C(F)(F)F)cc(Cl)n3)CC2)cc1 [Example 040, N-[4-[4-[6-chloro-4-(trifluoromethyl)-2-pyridyl]piperazin-1-yl]sulfonylphenyl]-2-piperazin-1-yl-acetamide] | 2.1 (≈ 3.84 µM) | 8.3 (≈ 15.2 µM) |
| O=C(O)c1ccccc1C(=O)N1CCc2cc(S(=O)(=O)N3CCN(c4cc(C(F)(F)F)cc(Cl)n4)CC3)ccc21 [Example 042, 2-[5-[4-[6-Chloro-4-(trifluoromethyl)-2-pyridyl]piperazin-1-yl]sulfonylindoline-1-carbonyl]benzoic acid] | 0.99 (≈ 1.66 µM) | 2 (≈ 3.36 µM) |
| Cc1cc(C(F)(F)F)nc(N2CCN(S(=O)(=O)c3ccc(NC(=O)c4cnc5c(c4)CNC5)cc3)CC2)n1 [Example 044, N-[4-[4-[4-methyl-6-(trifluoromethyl)pyrimidin-2-yl]piperazin-1-yl]sulfonylphenyl]-6,7-dihydro-5H-pyrrolo[3,4-b]pyridine-3-carboxamide] | 0.91 (≈ 1.66 µM) | 1.8 (≈ 3.29 µM) |
| Cc1cc(C(F)(F)F)cc(N2CCN(S(=O)(=O)c3ccc(NC(=O)c4cnc5c(c4)CNC5)cc3)CC2)n1 [Example 045, N-[4-[4-[6-methyl-4-(trifluoromethyl)-2-pyridyl]piperazin-1-yl]sulfonylphenyl]-6,7-dihydro-5H-pyrrolo[3,4-b]pyridine-3-carboxamide] | 0.91 (≈ 1.66 µM) | 3.6 (≈ 6.59 µM) |
| O=C(Nc1ccc(S(=O)(=O)N2CCN(c3cc(C(F)(F)F)cc(Cl)n3)CC2)cc1)c1ccc2c(c1)CNC2 [Example 046, N-[4-[4-[6-chloro-4-(trifluoromethyl)-2-pyridyl]piperazin-1-yl]sulfonylphenyl]isoindoline-5-carboxamide] | 0.47 (≈ 0.83 µM) | 0.47 (≈ 0.83 µM) |
| O=C(Nc1ccc(S(=O)(=O)N2CCN(c3cc(C(F)(F)F)cc(Cl)n3)CC2)cc1)c1cccc(N2CC3CC2CN3)c1 (stereo not shown) [Example 047, N-[4-[4-[6-chloro-4-(trifluoromethyl)-2-pyridyl]piperazin-1-yl]sulfonylphenyl]-3-(2,5-diazabicyclo[2.2.1]heptan-2-yl)benzamide] | 1.1 (≈ 1.77 µM) | 2.3 (≈ 3.7 µM) |
| NCCOc1cccc(C(=O)Nc2ccc(S(=O)(=O)N3CCN(c4cc(C(F)(F)F)cc(Cl)n4)CC3)cc2)c1 [Example 048, 3-(2-Aminoethoxy)-N-[4-[4-[6-chloro-4-(trifluoromethyl)-2-pyridyl]piperazin-1-yl]sulfonylphenyl]benzamide] | 0.48 (≈ 0.822 µM) | 0.97 (≈ 1.66 µM) |
| O=C(Nc1ccc(S(=O)(=O)N2CCN(c3cc(C(F)(F)F)cc(Cl)n3)CC2)cc1)c1cccc(OCC2CNC2)c1 [Example 050, 3-(Azetidin-3-ylmethoxy)-N-[4-[4-[6-chloro-4-(trifluoromethyl)-2-pyridyl]piperazin-1-yl]sulfonylphenyl]benzamide] | 1 (≈ 1.64 µM) | 1 (≈ 1.64 µM) |
| N[C@@H]1CCN(c2cccc(C(=O)Nc3ccc(S(=O)(=O)N4CCN(c5cc(C(F)(F)F)cc(Cl)n5)CC4)cc3)c2)C1 [Example 051, N-[4-[4-[6-chloro-4-(trifluoromethyl)-2-pyridyl]piperazin-1-yl]sulfonylphenyl]-3-[(3R)-3-aminopyrrolidin-1-yl]benzamide] | 0.56 (≈ 0.919 µM) | 1.1 (≈ 1.81 µM) |
| NCCc1cccc(C(=O)Nc2ccc(S(=O)(=O)N3CCN(c4cc(C(F)(F)F)cc(Cl)n4)CC3)cc2)c1 [Example 053, 3-(2-Aminoethyl)-N-[4-[4-[6-chloro-4-(trifluoromethyl)-2-pyridyl]piperazin-1-yl]sulfonylphenyl]benzamide] | 0.44 (≈ 0.775 µM) | 0.89 (≈ 1.57 µM) |
| O=C(Nc1ccc(S(=O)(=O)N2CCN(c3cc(C(F)(F)F)cc(Cl)n3)CC2)cc1)c1cccc(N2CCNCC2)c1 [Example 054, N-[4-[4-[6-chloro-4-(trifluoromethyl)-2-pyridyl]piperazin-1-yl]sulfonylphenyl]-3-piperazin-1-yl-benzamide] | 0.48 (≈ 0.788 µM) | 0.95 (≈ 1.56 µM) |
| NC1Cc2ccc(C(=O)Nc3ccc(S(=O)(=O)N4CCN(c5cc(C(F)(F)F)cc(Cl)n5)CC4)cc3)cc2C1 (stereo not shown) [Example 055, 2-Amino-N-[4-[4-[6-chloro-4-(trifluoromethyl)-2-pyridyl]piperazin-1-yl]sulfonylphenyl]indane-5-carboxamide] | 0.45 (≈ 0.776 µM) | 0.91 (≈ 1.57 µM) |
| NCc1ccc(O)c(C(=O)Nc2ccc(S(=O)(=O)N3CCN(c4cc(C(F)(F)F)cc(Cl)n4)CC3)cc2)c1 [Example 056, 5-(Aminomethyl)-N-[4-[4-[6-chloro-4-(trifluoromethyl)-2-pyridyl]piperazin-1-yl]sulfonylphenyl]-2-hydroxy-benzamide] | 3.8 (≈ 6.67 µM) | 3.8 (≈ 6.67 µM) |
| NCCC(N)C(=O)Nc1cccc(C(=O)Nc2ccc(S(=O)(=O)N3CCN(c4cc(C(F)(F)F)cc(Cl)n4)CC3)cc2)c1 (stereo not shown) [Example 057, N-[4-[4-[6-chloro-4-(trifluoromethyl)-2-pyridyl]piperazin-1-yl]sulfonylphenyl]-3-(2,4-diaminobutanoylamino)benzamide] | 1 (≈ 1.56 µM) | 2 (≈ 3.12 µM) |
| NCCCNCc1ccnc(C(=O)Nc2ccc(S(=O)(=O)N3CCN(c4cc(C(F)(F)F)cc(Cl)n4)CC3)cc2)c1 [Example 058, 4-[(3-Aminopropylamino)methyl]-N-[4-[4-[6-chloro-4-(trifluoromethyl)-2-pyridyl]piperazin-1-yl]sulfonylphenyl]pyridine-2-carboxamide] | 3.8 (≈ 6.21 µM) | 3.8 (≈ 6.21 µM) |
| NCCCNCc1cccc(C(=O)Nc2ccc(S(=O)(=O)N3CCN(c4cc(C(F)(F)F)cc(Cl)n4)CC3)cc2)n1 [Example 059, 6-[(3-Aminopropylamino)methyl]-N-[4-[4-[6-chloro-4-(trifluoromethyl)-2-pyridyl]piperazin-1-yl]sulfonylphenyl]pyridine-2-carboxamide] | 1.9 (≈ 3.1 µM) | 3.8 (≈ 6.21 µM) |
| NCCCNCc1cncc(C(=O)Nc2ccc(S(=O)(=O)N3CCN(c4cc(C(F)(F)F)cc(Cl)n4)CC3)cc2)c1 [Example 060, 5-[(3-Aminopropylamino)methyl]-N-[4-[4-[6-chloro-4-(trifluoromethyl)-2-pyridyl]piperazin-1-yl]sulfonylphenyl]pyridine-3-carboxamide] | 0.48 (≈ 0.784 µM) | 1.9 (≈ 3.1 µM) |
